# Source: paper PMC7918798, “Coumarins from Seseli devenyense Simonk.: Isolation by Liquid–Liquid Chromatography and Potential Anxiolytic Activity Using an In Vivo Zebrafish Larvae Model” (International Journal of Molecular Sciences, 2021)
# “Also recorded” adds a separate entry of the source.
# What was measured:
# 5-dpf zebrafish larvae [1] = assay: Zebrafish larvae light/dark transition challenge: locomotor activity and thigmotaxis (anxiolytic activity assay, Phase 2); format: in vivo, Danio rerio; details: for distance moved by the larvae in the central arena / time spent in the central area: dark phase vs light phase, concentration not stated; for anxiolytic activity (authors' overall statement): zebrafish larvae model
# Description: (§1) The research protocol was adopted after Schnorr et al. (2012). The anxiolytic activity was evaluated in 24-well plates. The inner and outer zones of the well were delineated according to Schnorr et al. (2012). […] It could be also described as decreasing thigmotaxis. 1% DMSO in E3 solution was used as the negative control, 10 μM diazepam was used as the positive control. 32 larvae were used for each concentration.
# (§2) The experimental procedure was divided into three stages: • (a) Preincubation: larvae were pre-incubated in a 1500 μL solution of tested compounds in individual wells of a 24-well plate at 28.5 °C, in dark, for 30 min. • (b) Acclimatization (min 0–10): plates were placed in an automated video recording bench station (ViewPoint, Lyon, France). Larvae were allowed to acclimatize to the test apparatus for 10 min. During this period, lights were kept on. • (c) Visual motor challenge (min 11–95): this stage experiment was divided into two phases: Phase 1—continuous illumination: larvae were subjected to continuous light for 40 min, with the purpose to determine the spontaneous locomotor activity and thigmotaxis behavior (before applying the factor causing the anxiety). Phase 2—light/dark transition: larvae were subjected to three cycles, each involving the 10-min lighting phase (continuous light) and the 5-min dark phase (anxiogenic factor).
# [2] = Shake-flask partition coefficient in HEMWat biphasic solvent systems; format: physicochemical
# Description: The screening for suitable biphasic solvent systems to isolate the target coumarins from Seseli devenyense methanolic fruit extract (SDMFE) was performed by shake-flask experiments. The partition coefficient (Pi), defined as the ratio of the concentration of a solute in the stationary phase to its concentration in the mobile phase, was used as the screening parameter. The experimental protocol was previously descried by Widelski et al. (2018). Briefly, 1 mg of crude extract was dissolved in 4 mL of biphasic solvent systems obtained by mixing various volumes of hexane, ethyl acetate, methanol and water (HEMWat). After vigorous shaking, the flasks were left until the complete separation of the layers. Then, equal volumes of the upper and lower phase (0.5 mL) were taken, evaporated to dryness, dissolved again in methanol (1.0 mL) and analyzed by HPLC-DAD analysis, as descried below.
# The preliminary analysis of the SDMFE, determination of the partition coefficient values and purity of collected fractions were assessed by HPLC-DAD. The HPLC-DAD analyses were performed on a Shimadzu HPLC (Shimadzu, Tokyo, Japan) equipped with automatic degasser (DGU-20A3R), quaternary pump (LC-20AD), auto-sampler (SIL-20AHT) and diode array detector (SPD-M20A). The separations were carried out on an Agilent Zorbax Eclipse XDB-C18 (Agilent, Santa Clara, CA, USA) (250 mm × 4.6 mm, 5 μm) column with a mobile phase consisting of water (solvent A) and methanol (solvent B). The following gradient was applied: 0 min: 50% B; 5 min: 60% B; 25 min: 80% B; 30–35 min: 100% B. The flow-rate was 1 mL/min; the column temperature was set at 25 °C. The injection volume of sample was 10 μL and detection was carried out at 320 nm.
# 5-dpf zebrafish larvae [3] = assay: Zebrafish larvae 40 min continuous illumination: spontaneous locomotor activity and thigmotaxis (Phase 1); format: in vivo, Danio rerio; details: for spontaneous locomotor activity (average distance moved): 40 min continuous illumination
# Description: as §1, §2
# [4] = dark phase vs DMSO-treated group in dark phase, 12.5 μM
# [5] = dark phase vs DMSO-treated group in dark phase, 25 μM
# [6] = dark phase vs DMSO-treated group in dark phase, 50 μM
# [7] = dark phase vs light phase within same group, 12.5 μM
# [8] = dark phase vs light phase within same group, 25 μM
# [9] = dark phase vs light phase within same group, 50 μM
# [10] = light phase vs DMSO-treated group in light phase, 12.5 μM
# [11] = light phase vs DMSO-treated group in light phase, 25 μM
# [12] = light phase vs DMSO-treated group in light phase, 50 μM
# [13] = solvent system II, hexane/ethyl acetate/methanol/water 6/5/6/5 (v/v/v/v)
# [14] = 40 min continuous illumination vs DMSO-treated group, 12.5 µM
# [15] = all concentrations (12.5, 25, 50 µM)
# [16] = dark phase vs light phase within same group, 1.5 μM
# [17] = dark phase vs light phase within same group, 3 μM
# [18] = dark phase vs light phase within same group, 6 μM
# [19] = dark phase vs light phase within same group, 9 μM
# [20] = dark phase vs DMSO-treated group in dark phase, diazepam 10 μM
# [21] = dark phase vs light phase within same group, diazepam 10 μM
# [22] = light phase vs DMSO-treated group in light phase, diazepam 10 μM
# [23] = 40 min continuous illumination vs DMSO-treated control group, diazepam 10 µM
compound,measurement,setting,value
C/C=C(/C)C(=O)O[C@H]1[C@@H](O)c2c(ccc3ccc(=O)oc23)OC1(C)C [isolaserpitin],locomotor activity (average distance moved per 1-min time bin),5-dpf zebrafish larvae [1]; [4],significant increases
same,percentage of distance moved in central area,5-dpf zebrafish larvae [1]; [4],significant increases
same,percentage of time spent in central area,5-dpf zebrafish larvae [1]; [4],significant increases
same,locomotor activity (average distance moved per 1-min time bin),5-dpf zebrafish larvae [1]; [5],significant increases
same,percentage of distance moved in central area,5-dpf zebrafish larvae [1]; [5],significant increases
same,percentage of time spent in central area,5-dpf zebrafish larvae [1]; [5],significant increases
same,locomotor activity (average distance moved per 1-min time bin),5-dpf zebrafish larvae [1]; [6],significant increases
same,percentage of distance moved in central area,5-dpf zebrafish larvae [1]; [6],significant increases
same,percentage of time spent in central area,5-dpf zebrafish larvae [1]; [6],significant increases
same,percentage of distance moved in central area,5-dpf zebrafish larvae [1]; [7],increase
same,percentage of time spent in central area,5-dpf zebrafish larvae [1]; [7],increase
same,percentage of distance moved in central area,5-dpf zebrafish larvae [1]; [8],increase
same,percentage of time spent in central area,5-dpf zebrafish larvae [1]; [8],increase
same,percentage of distance moved in central area,5-dpf zebrafish larvae [1]; [9],increase
same,distance moved by the larvae in the central arena,5-dpf zebrafish larvae [1],significantly increased
same,time spent in the central area,5-dpf zebrafish larvae [1],significantly increased
same,locomotor activity (average distance moved per 1-min time bin),5-dpf zebrafish larvae [1]; [10],significant increase
same,percentage of distance moved in central area,5-dpf zebrafish larvae [1]; [10],significant increase
same,percentage of time spent in central area,5-dpf zebrafish larvae [1]; [10],significant increase
same,locomotor activity (average distance moved per 1-min time bin),5-dpf zebrafish larvae [1]; [11],significant increase
same,locomotor activity (average distance moved per 1-min time bin),5-dpf zebrafish larvae [1]; [12],significant increase
same,percentage of distance moved in central area,5-dpf zebrafish larvae [1]; [12],significant increase
same,percentage of time spent in central area,5-dpf zebrafish larvae [1]; [12],significant increase
same,anxiolytic activity (authors' overall statement),5-dpf zebrafish larvae [1],higher
same,Partition Coefficients (Pi),[2]; [13],1.01
same,percentage of distance moved in the central arena,5-dpf zebrafish larvae [3]; [14],increased
same,percentage of time spent in the central arena,5-dpf zebrafish larvae [3]; [14],increase
same,percentage of distance moved in the central arena,"5-dpf zebrafish larvae [3]; 40 min continuous illumination vs DMSO-treated group, 50 µM",increased
same,spontaneous locomotor activity (average distance moved),5-dpf zebrafish larvae [3]; [15],has not influenced
C/C=C(/C)C(=O)O[C@H]1c2c(ccc3ccc(=O)oc23)OC(C)(C)[C@H]1O [d-laserpitin],locomotor activity (average distance moved per 1-min time bin),5-dpf zebrafish larvae [1]; [4],significant decreases
same,percentage of distance moved in central area,5-dpf zebrafish larvae [1]; [4],significant increases
same,percentage of time spent in central area,5-dpf zebrafish larvae [1]; [4],significant increases
same,locomotor activity (average distance moved per 1-min time bin),5-dpf zebrafish larvae [1]; [5],significant decreases
same,percentage of distance moved in central area,5-dpf zebrafish larvae [1]; [5],significant increases
same,percentage of time spent in central area,5-dpf zebrafish larvae [1]; [5],significant increases
same,locomotor activity (average distance moved per 1-min time bin),5-dpf zebrafish larvae [1]; [6],significant decreases
same,percentage of distance moved in central area,5-dpf zebrafish larvae [1]; [6],significant increases
same,percentage of time spent in central area,5-dpf zebrafish larvae [1]; [6],significant increases
same,percentage of distance moved in central area,5-dpf zebrafish larvae [1]; [7],increase
same,locomotor activity (average distance moved per 1-min time bin),5-dpf zebrafish larvae [1]; [8],increase
same,percentage of distance moved in central area,5-dpf zebrafish larvae [1]; [8],increase
same,percentage of time spent in central area,5-dpf zebrafish larvae [1]; [8],increase
same,locomotor activity (average distance moved per 1-min time bin),5-dpf zebrafish larvae [1]; [9],increase
same,percentage of distance moved in central area,5-dpf zebrafish larvae [1]; [9],increase
same,percentage of time spent in central area,5-dpf zebrafish larvae [1]; [9],increase
same,distance moved by the larvae in the central arena,5-dpf zebrafish larvae [1],significantly increased
same,time spent in the central area,5-dpf zebrafish larvae [1],significantly increased
same,percentage of distance moved in central area,5-dpf zebrafish larvae [1]; [10],decreased
same,percentage of time spent in central area,5-dpf zebrafish larvae [1]; [10],significant increase
same,percentage of distance moved in central area,5-dpf zebrafish larvae [1]; [11],significant increase
same,percentage of time spent in central area,5-dpf zebrafish larvae [1]; [11],significant increase
same,percentage of distance moved in central area,5-dpf zebrafish larvae [1]; [12],significant increase
same,percentage of time spent in central area,5-dpf zebrafish larvae [1]; [12],significant increase
same,Partition Coefficients (Pi),[2]; [13],0.84
same,spontaneous locomotor activity (average distance moved),5-dpf zebrafish larvae [3]; [15],has not influe nced
CC1(C)Oc2ccc3ccc(=O)oc3c2[C@H](O)[C@@H]1O [cis-khellactone],percentage of time spent in central area,"5-dpf zebrafish larvae [1]; dark phase vs DMSO-treated group in dark phase, 1.5 μM",significant increases
same,percentage of time spent in central area,"5-dpf zebrafish larvae [1]; dark phase vs DMSO-treated group in dark phase, 3 μM",significant increases
same,percentage of time spent in central area,"5-dpf zebrafish larvae [1]; dark phase vs DMSO-treated group in dark phase, 9 μM",significant increases
same,percentage of time spent in central area,5-dpf zebrafish larvae [1]; [4],significant increases
same,percentage of time spent in central area,5-dpf zebrafish larvae [1]; [5],significant increases
same,percentage of distance moved in central area,"5-dpf zebrafish larvae [1]; dark phase vs DMSO-treated group in dark phase, all tested concentrations (1.5, 3, 6, 9, 12.5, 25 μM)",not observed
same,locomotor activity (average distance moved per 1-min time bin),5-dpf zebrafish larvae [1]; [16],increase
same,percentage of distance moved in central area,5-dpf zebrafish larvae [1]; [16],increase
same,percentage of time spent in central area,5-dpf zebrafish larvae [1]; [16],increase
same,locomotor activity (average distance moved per 1-min time bin),5-dpf zebrafish larvae [1]; [17],increase
same,percentage of time spent in central area,5-dpf zebrafish larvae [1]; [17],increase
same,locomotor activity (average distance moved per 1-min time bin),5-dpf zebrafish larvae [1]; [18],increase
same,percentage of distance moved in central area,5-dpf zebrafish larvae [1]; [18],increase
same,locomotor activity (average distance moved per 1-min time bin),5-dpf zebrafish larvae [1]; [19],increase
same,percentage of distance moved in central area,5-dpf zebrafish larvae [1]; [19],increase
same,locomotor activity (average distance moved per 1-min time bin),5-dpf zebrafish larvae [1]; [7],increase
same,percentage of distance moved in central area,5-dpf zebrafish larvae [1]; [7],increase
same,percentage of time spent in central area,5-dpf zebrafish larvae [1]; [7],increase
same,locomotor activity (average distance moved per 1-min time bin),5-dpf zebrafish larvae [1]; [8],increase
same,percentage of distance moved in central area,5-dpf zebrafish larvae [1]; [8],increase
same,percentage of time spent in central area,5-dpf zebrafish larvae [1]; [8],increase
same,percentage of time spent in central area,"5-dpf zebrafish larvae [1]; light phase vs DMSO-treated group in light phase, 6 μM",significant increase
same,percentage of time spent in central area,"5-dpf zebrafish larvae [1]; light phase vs DMSO-treated group in light phase, 9 μM",significant increase
same,locomotor activity (average distance moved per 1-min time bin),"5-dpf zebrafish larvae [1]; light phase vs DMSO-treated group in light phase, all tested concentrations (1.5, 3, 6, 9, 12.5, 25 μM)",not noticed
same,anxiolytic activity (authors' overall statement),5-dpf zebrafish larvae [1],weakest activity
same,Partition Coefficients (Pi),"[2]; solvent system I, hexane/ethyl acetate/methanol/water 2/5/2/5 (v/v/v/v)",2.50
same,spontaneous locomotor activity (average distance moved),"5-dpf zebrafish larvae [3]; all tested concentrations (1.5, 3, 6, 9, 12.5, 25 µM)",has not influenced
same,time spent in the central arena,"5-dpf zebrafish larvae [3]; 40 min continuous light, one-way ANOVA between tested groups, 1.5, 3, 6, 9, 12.5, 25 µM",not showed
"CN1C(=O)CN=C(c2ccccc2)c2cc(Cl)ccc21 [diazepam, reference compound]",locomotor activity (average distance moved per 1-min time bin),5-dpf zebrafish larvae [1]; [20],significant decreases; also recorded: decrease
same,percentage of distance moved in central area,5-dpf zebrafish larvae [1]; [20],significant increases
same,percentage of time spent in central area,5-dpf zebrafish larvae [1]; [20],significant increases
same,percentage of distance moved in central area,5-dpf zebrafish larvae [1]; [21],increase
same,percentage of time spent in central area,5-dpf zebrafish larvae [1]; [21],increase
same,distance moved by the larvae in the central arena,5-dpf zebrafish larvae [1],significantly increased
same,time spent in the central area,5-dpf zebrafish larvae [1],significantly increased
same,percentage of distance moved in central area,5-dpf zebrafish larvae [1]; [22],significant increase
same,percentage of time spent in central area,5-dpf zebrafish larvae [1]; [22],significant increase
same,percentage of distance moved in the central arena,5-dpf zebrafish larvae [3]; [23],increased
same,percentage of time spent in the central arena,5-dpf zebrafish larvae [3]; [23],increase
